Data: US8247211B2, “Glycopeptide antibiotics” (American Cyanamid Company, priority 2001, dated 2012)
Values after ≈ are worked out from the molar mass of the structure shown.

Tests used:
Assay in all cases: In vitro antibacterial evaluation: minimum inhibitory concentration (MIC), broth dilution method
Assay type in all cases: cell-based
Staphylococcus sp. = conditions: broth dilution, 18 hours at 35° C.
Procedure: (§1) The minimum inhibitory concentration (MIC), the lowest concentration of the antibiotic which inhibits growth of the test organism, is determined by the broth dilution method using Muller-Hinton II […] (Baltimore Biological Laboratories) following the recommendations of the National Committee for Clinical Laboratory Standards [Methods for dilution antimicrobial susceptibility tests for bacteria that grow aerobically, approved standard M7-A2, National Committee for Clinical Laboratory Standards, Villanova, Pa].
(§2) An inoculum level of 5×10^5 CFU/mL, and a range of antibiotic concentrations (64-0.06 μg/mL) is used. […] The test organisms include a spectrum of Gram-positive bacteria comprised of Staphylococcus sp., Streptococcus sp. and Enterococcus sp. These organisms include recent clinical isolates that are resistant to methicillin, penicillin and/or vancomycin.

Escherichia coli = system: Escherichia coli
Procedure: as §1, §2

Streptococcus sp. = system: Streptococcus sp.
Procedure: as §1, §2

Enterococcus sp. = system: Enterococcus sp.
Procedure: as §1, §2

MIC Coagulase Negative Staphylococcus (GC 4547) (Staphylococcus sp.; 5×10^5 CFU/mL): 1 µg/mL (≈ 0.698 µM)
MIC Coagulase Negative Staphylococcus (GC 4548) (Staphylococcus sp.; 5×10^5 CFU/mL): <0.5 µg/mL
MIC Coagulase Negative Staphylococcus (GC 4549) (Staphylococcus sp.; 5×10^5 CFU/mL): 1 µg/mL (≈ 0.698 µM)
MIC Coagulase Negative Staphylococcus (GC 4551) (Staphylococcus sp.; 5×10^5 CFU/mL): <0.5 µg/mL
MIC Coagulase Negative Staphylococcus (GC 6257) (Staphylococcus sp.; 5×10^5 CFU/mL): 0.5 µg/mL (≈ 0.349 µM)
MIC Staphylococcus aureus (ATCC 29213) (Staphylococcus sp.; 5×10^5 CFU/mL): 1 µg/mL (≈ 0.698 µM)
MIC Staphylococcus aureus (GC 1131) (Staphylococcus sp.; 5×10^5 CFU/mL): <0.5 µg/mL
MIC Staphylococcus aureus (GC 3051) (Staphylococcus sp.; 5×10^5 CFU/mL): 1 µg/mL (≈ 0.698 µM)
MIC Staphylococcus aureus (GC 3053) (Staphylococcus sp.; 5×10^5 CFU/mL): 1 µg/mL (≈ 0.698 µM)
MIC Staphylococcus aureus (GC 4541) (Staphylococcus sp.; 5×10^5 CFU/mL): <0.5 µg/mL
MIC Staphylococcus aureus (GC 4542) (Staphylococcus sp.; 5×10^5 CFU/mL): <0.5 µg/mL
MIC Staphylococcus aureus (GC 4544) (Staphylococcus sp.; 5×10^5 CFU/mL): 1 µg/mL (≈ 0.698 µM)
MIC Staphylococcus aureus (GC 4545) (Staphylococcus sp.; 5×10^5 CFU/mL): 1 µg/mL (≈ 0.698 µM)
MIC Staphylococcus aureus-SMITH (GC 4543) (Staphylococcus sp.; 5×10^5 CFU/mL): <0.5 µg/mL
MIC Staphylococcus aureus (ATCC 29213) (Staphylococcus sp.; strain ATCC 29213): 1 µg/mL (≈ 0.698 µM)
MIC Staphylococcus aureus (GC 1131) (Staphylococcus sp.; strain GC 1131): <0.5 µg/mL
MIC Staphylococcus aureus (GC 3051) (Staphylococcus sp.; strain GC 3051): 1 µg/mL (≈ 0.698 µM)
MIC Staphylococcus aureus (GC 3053) (Staphylococcus sp.; strain GC 3053): 1 µg/mL (≈ 0.698 µM)
MIC Staphylococcus aureus (GC 4541) (Staphylococcus sp.; strain GC 4541): <0.5 µg/mL
MIC Staphylococcus aureus (GC 4542) (Staphylococcus sp.; strain GC 4542): <0.5 µg/mL
MIC Staphylococcus aureus-SMITH (GC 4543) (Staphylococcus sp.; strain GC 4543): <0.5 µg/mL
MIC Staphylococcus aureus (GC 4544) (Staphylococcus sp.; strain GC 4544): 1 µg/mL (≈ 0.698 µM)
MIC Staphylococcus aureus (GC 4545) (Staphylococcus sp.; strain GC 4545): 1 µg/mL (≈ 0.698 µM)
MIC Coagulase Negative Staphylococcus (GC 4547) (Staphylococcus sp.; strain GC 4547): 1 µg/mL (≈ 0.698 µM)
MIC Coagulase Negative Staphylococcus (GC 4548) (Staphylococcus sp.; strain GC 4548): <0.5 µg/mL
MIC Coagulase Negative Staphylococcus (GC 4549) (Staphylococcus sp.; strain GC 4549): 1 µg/mL (≈ 0.698 µM)
MIC Coagulase Negative Staphylococcus (GC 4551) (Staphylococcus sp.; strain GC 4551): <0.5 µg/mL
MIC Coagulase Negative Staphylococcus (GC 6257) (Staphylococcus sp.; strain GC 6257): 0.5 µg/mL (≈ 0.349 µM)
MIC Escherichia coli (ATCC 25922) (Escherichia coli; strain ATCC 25922): 64 µg/mL (≈ 44.6 µM)
MIC Escherichia coli (GC 4559) (Escherichia coli; strain GC 4559): 32 µg/mL (≈ 22.3 µM)
MIC Escherichi coli (GC 4560) (Escherichia coli; strain GC 4560): <0.5 µg/mL
MIC Streptococcus pneumoniae (ATCC 6301) (Streptococcus sp.; strain ATCC 6301): <0.5 µg/mL
MIC Streptococcus pneumoniae (GC 1894) (Streptococcus sp.; strain GC 1894): <0.5 µg/mL
MIC Streptococcus pyogenes (GC 4563) (Streptococcus sp.; strain GC 4563): 1 µg/mL (≈ 0.698 µM)
MIC Streptococcus agalactiae (GC 4564) (Streptococcus sp.; strain GC 4564): <0.5 µg/mL
MIC Streptococcus pneumoniae (GC 4565) (Streptococcus sp.; strain GC 4565): <0.5 µg/mL
MIC Enterococcus faecalis (ATCC 29212) (Enterococcus sp.; strain ATCC 29212): 1 µg/mL (≈ 0.698 µM)
MIC Enterococcus faecalis (GC 2242) (Enterococcus sp.; strain GC 2242): <0.5 µg/mL
MIC Enterococcus faecium (GC 2243) (Enterococcus sp.; strain GC 2243): 1 µg/mL (≈ 0.698 µM)
MIC Enterococcus faecalis (GC 2691) (Enterococcus sp.; strain GC 2691): 1 µg/mL (≈ 0.698 µM)
MIC Enterococcus faecalis (GC 3059) (Enterococcus sp.; strain GC 3059): 1 µg/mL (≈ 0.698 µM)
MIC Enterococcus faecalis (GC 4552) (Enterococcus sp.; strain GC 4552): 1 µg/mL (≈ 0.698 µM)
MIC Enterococcus faecalis (GC 4553) (Enterococcus sp.; strain GC 4553): 2 µg/mL (≈ 1.4 µM)
MIC Enterococcus faecalis (GC 4554) (Enterococcus sp.; strain GC 4554): 1 µg/mL (≈ 0.698 µM)
MIC Enterococcus faecium (GC 4556) (Enterococcus sp.; strain GC 4556): 1 µg/mL (≈ 0.698 µM)
MIC Enterococcus faecium (GC 4557) (Enterococcus sp.; strain GC 4557): 1 µg/mL (≈ 0.698 µM)
MIC Enterococcus avium (GC 4558) (Enterococcus sp.; strain GC 4558): 1 µg/mL (≈ 0.698 µM)
MIC Enterococcus faecalis (GC 6189) (Enterococcus sp.; strain GC 6189): 1 µg/mL (≈ 0.698 µM)
SMILES: CC(c1ccccc1)C1NC(=O)CNC(=O)C(CO)NC(=O)C(C(O)C2CNC(=N)N2C2OC(CO)C(O)C(O)C2O)NC(=O)C(C(O)C2CNC(=N)N2)NC(=O)C(Cc2ccc(OC3OC(CO)C(OC4OC5COC(c6ccc7ccccc7c6)OC5C(O)C4O)C(O)C3O)cc2)NC1=O (stereo not drawn) [Example 145, Cyclo[glycyl-β-methylphenylalanyl-O-[4-O-[4,6-O-(2-naphthylmethylene)hexopyranosyl]-hexopyranosyl]tyrosyl-3-(2-iminoimidazolidin-4-yl)seryl-3(3-hexopyranosyl-2-iminoimidazolidin-4-yl)serylseryl]]
MIC Staphylococcus haemolyticus (GC 4546) (Staphylococcus sp.; 5×10^5 CFU/mL): <0.5 µg/mL
MIC Staphylococcus haemolyticus (GC 4546) (Staphylococcus sp.; strain GC 4546): <0.5 µg/mL
